# Laboratory results as given in publication PMC11027041 (RSC Advances, 2024).
# Legend:
# HDAC2 = HDAC2 (Homo sapiens, UniProt Q92769); experiment: In vitro HDAC enzyme assay; format: biochemical
# HDAC3 = HDAC3 (Homo sapiens, UniProt O15379); experiment: In vitro HDAC enzyme assay; format: biochemical
# HDAC5 = HDAC5 (Homo sapiens, UniProt Q9UQL6); experiment: In vitro HDAC enzyme assay; format: biochemical
# HDAC7 = HDAC7 (Homo sapiens, UniProt Q8WUI4); experiment: In vitro HDAC enzyme assay; format: biochemical
# HDAC8 = HDAC8 (Homo sapiens, UniProt Q9BY41); experiment: In vitro HDAC enzyme assay; format: biochemical
# HDAC9 = HDAC9 (Homo sapiens, UniProt Q9UKV0); experiment: In vitro HDAC enzyme assay; format: biochemical
# HDAC11 = HDAC11 (Homo sapiens, UniProt Q96DB2); experiment: In vitro HDAC enzyme assay; format: biochemical
# [1] = test system: colon cancer cell line HCT-116; experiment: Cell viability assay; format: cell-based; conditions: Homo sapiens, HCT-116, 72 h, read-out: Antiproliferative IC50 HCT116
# [2] = test system: melanoma cell line SK-MEL-2; experiment: Cell viability assay; format: cell-based; conditions: Homo sapiens, SK-MEL-2, 72 h, read-out: Antiproliferative IC50 SK-MEL-2
# CCRF-CEM = experiment: NCI-60 antiproliferative screening; format: cell-based; conditions: Homo sapiens, read-out: percent inhibition
# HL60 = experiment: NCI-60 antiproliferative screening; format: cell-based; conditions: Homo sapiens, HL-60, read-out: percent inhibition
# K-562 = experiment: NCI-60 antiproliferative screening; format: cell-based; conditions: Homo sapiens, K562, read-out: percent inhibition
# A549/ATCC = experiment: NCI-60 antiproliferative screening; format: cell-based; conditions: Homo sapiens, A549, read-out: percent inhibition
# HOP-62 = experiment: NCI-60 antiproliferative screening; format: cell-based; conditions: Homo sapiens, HOP-62, read-out: percent inhibition
# NCI-H23 = experiment: NCI-60 antiproliferative screening; format: cell-based; conditions: Homo sapiens, NCI-H23, read-out: percent inhibition
# NCI-H460 = experiment: NCI-60 antiproliferative screening; format: cell-based; conditions: Homo sapiens, NCI-H460, read-out: percent inhibition
# NCI-H522 = experiment: NCI-60 antiproliferative screening; format: cell-based; conditions: Homo sapiens, NCI-H522, read-out: percent inhibition
# HCC-2998 = experiment: NCI-60 antiproliferative screening; format: cell-based; conditions: Homo sapiens, HCC 2998, read-out: percent inhibition
# HCT-116 = experiment: NCI-60 antiproliferative screening; format: cell-based; conditions: Homo sapiens, HCT-116, read-out: percent inhibition
# KM12 = experiment: NCI-60 antiproliferative screening; format: cell-based; conditions: Homo sapiens, KM12, read-out: percent inhibition
# SW-620 = experiment: NCI-60 antiproliferative screening; format: cell-based; conditions: Homo sapiens, SW-620, read-out: percent inhibition
# SF-295 = experiment: NCI-60 antiproliferative screening; format: cell-based; conditions: Homo sapiens, SF-295, read-out: percent inhibition
# SF-539 = experiment: NCI-60 antiproliferative screening; format: cell-based; conditions: Homo sapiens, SF-539, read-out: percent inhibition
# SNB-19 = experiment: NCI-60 antiproliferative screening; format: cell-based; conditions: Homo sapiens, SNB-19, read-out: percent inhibition
# SNB-75 = experiment: NCI-60 antiproliferative screening; format: cell-based; conditions: Homo sapiens, SNB-75, read-out: percent inhibition
# MALME-3M = experiment: NCI-60 antiproliferative screening; format: cell-based; conditions: Homo sapiens, read-out: percent inhibition
# M14 = experiment: NCI-60 antiproliferative screening; format: cell-based; conditions: Homo sapiens, M14, read-out: percent inhibition
# MDA-MB-435 = experiment: NCI-60 antiproliferative screening; format: cell-based; conditions: Homo sapiens, MDA-MB-435, read-out: percent inhibition
# SK-MEL-2 = experiment: NCI-60 antiproliferative screening; format: cell-based; conditions: Homo sapiens, SK-MEL-2, read-out: percent inhibition
# UACC-257 = experiment: NCI-60 antiproliferative screening; format: cell-based; conditions: Homo sapiens, UACC-257, read-out: percent inhibition
# OVCAR-3 = experiment: NCI-60 antiproliferative screening; format: cell-based; conditions: Homo sapiens, OVCAR-3, read-out: percent inhibition
# OVCAR-5 = experiment: NCI-60 antiproliferative screening; format: cell-based; conditions: Homo sapiens, OVCAR-5, read-out: percent inhibition
# OVCAR-8 = experiment: NCI-60 antiproliferative screening; format: cell-based; conditions: Homo sapiens, OVCAR-8, read-out: percent inhibition
# SK-OV-3 = experiment: NCI-60 antiproliferative screening; format: cell-based; conditions: Homo sapiens, SK-OV-3, read-out: percent inhibition
# 786-0 = experiment: NCI-60 antiproliferative screening; format: cell-based; conditions: Homo sapiens, 786-0, read-out: percent inhibition
# CAKI-1 = experiment: NCI-60 antiproliferative screening; format: cell-based; conditions: Homo sapiens, CAKI-1, read-out: percent inhibition
# SN12C = experiment: NCI-60 antiproliferative screening; format: cell-based; conditions: Homo sapiens, read-out: percent inhibition
# TK-10 = experiment: NCI-60 antiproliferative screening; format: cell-based; conditions: Homo sapiens, TK-10, read-out: percent inhibition
# PC-3 = experiment: NCI-60 antiproliferative screening; format: cell-based; conditions: Homo sapiens, PC-3, read-out: percent inhibition
# HS 578T = experiment: NCI-60 antiproliferative screening; format: cell-based; conditions: Homo sapiens, read-out: percent inhibition
# MDA-MB-468 = experiment: NCI-60 antiproliferative screening; format: cell-based; conditions: Homo sapiens, MDA-MB-468, read-out: percent inhibition
# [3] = test system: fifty-nine cancer cell lines; experiment: NCI-60 antiproliferative screening, panel summary; format: cell-based; conditions: read-out: percent inhibition of 55 cell lines
# Sequence of HDAC11 (Q96DB2 whole entry): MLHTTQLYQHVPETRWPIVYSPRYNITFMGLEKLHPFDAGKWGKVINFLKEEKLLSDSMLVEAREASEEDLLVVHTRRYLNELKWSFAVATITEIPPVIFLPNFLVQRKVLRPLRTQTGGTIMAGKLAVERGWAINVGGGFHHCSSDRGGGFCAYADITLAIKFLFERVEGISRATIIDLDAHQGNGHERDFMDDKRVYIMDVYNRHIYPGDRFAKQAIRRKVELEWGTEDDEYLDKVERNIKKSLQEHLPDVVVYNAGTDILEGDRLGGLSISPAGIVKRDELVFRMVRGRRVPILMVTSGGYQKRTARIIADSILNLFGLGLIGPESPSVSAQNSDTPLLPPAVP
# Sequence of HDAC5 (Q9UQL6 whole entry): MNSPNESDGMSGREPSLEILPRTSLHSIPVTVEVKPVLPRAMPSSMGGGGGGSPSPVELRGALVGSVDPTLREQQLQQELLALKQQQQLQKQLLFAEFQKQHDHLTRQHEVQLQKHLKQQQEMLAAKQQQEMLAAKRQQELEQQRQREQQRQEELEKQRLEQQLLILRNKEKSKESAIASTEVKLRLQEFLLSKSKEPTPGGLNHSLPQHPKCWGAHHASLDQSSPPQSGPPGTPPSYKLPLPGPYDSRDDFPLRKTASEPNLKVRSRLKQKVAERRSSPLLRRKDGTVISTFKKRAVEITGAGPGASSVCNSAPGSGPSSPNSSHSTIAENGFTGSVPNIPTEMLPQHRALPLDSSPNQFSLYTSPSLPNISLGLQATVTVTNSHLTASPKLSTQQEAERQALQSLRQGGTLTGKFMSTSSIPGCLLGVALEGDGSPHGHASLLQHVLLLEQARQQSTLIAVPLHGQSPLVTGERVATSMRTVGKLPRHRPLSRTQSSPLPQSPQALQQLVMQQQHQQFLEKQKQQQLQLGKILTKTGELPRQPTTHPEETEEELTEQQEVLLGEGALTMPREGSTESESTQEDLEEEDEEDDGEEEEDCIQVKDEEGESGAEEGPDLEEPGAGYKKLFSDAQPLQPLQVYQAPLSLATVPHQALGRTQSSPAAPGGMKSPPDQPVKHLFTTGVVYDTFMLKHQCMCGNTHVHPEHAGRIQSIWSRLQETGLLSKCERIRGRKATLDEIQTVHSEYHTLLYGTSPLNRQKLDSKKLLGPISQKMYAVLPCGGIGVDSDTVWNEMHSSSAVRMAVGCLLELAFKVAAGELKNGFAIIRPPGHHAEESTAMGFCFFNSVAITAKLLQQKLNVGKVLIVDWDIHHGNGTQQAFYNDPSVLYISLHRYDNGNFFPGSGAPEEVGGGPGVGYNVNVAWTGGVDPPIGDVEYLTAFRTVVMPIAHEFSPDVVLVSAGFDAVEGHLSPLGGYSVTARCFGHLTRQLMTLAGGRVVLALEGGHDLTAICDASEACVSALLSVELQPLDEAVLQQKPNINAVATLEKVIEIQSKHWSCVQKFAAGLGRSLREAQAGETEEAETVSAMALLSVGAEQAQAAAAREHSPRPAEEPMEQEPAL
# Sequence of HDAC9 (Q9UKV0 whole entry): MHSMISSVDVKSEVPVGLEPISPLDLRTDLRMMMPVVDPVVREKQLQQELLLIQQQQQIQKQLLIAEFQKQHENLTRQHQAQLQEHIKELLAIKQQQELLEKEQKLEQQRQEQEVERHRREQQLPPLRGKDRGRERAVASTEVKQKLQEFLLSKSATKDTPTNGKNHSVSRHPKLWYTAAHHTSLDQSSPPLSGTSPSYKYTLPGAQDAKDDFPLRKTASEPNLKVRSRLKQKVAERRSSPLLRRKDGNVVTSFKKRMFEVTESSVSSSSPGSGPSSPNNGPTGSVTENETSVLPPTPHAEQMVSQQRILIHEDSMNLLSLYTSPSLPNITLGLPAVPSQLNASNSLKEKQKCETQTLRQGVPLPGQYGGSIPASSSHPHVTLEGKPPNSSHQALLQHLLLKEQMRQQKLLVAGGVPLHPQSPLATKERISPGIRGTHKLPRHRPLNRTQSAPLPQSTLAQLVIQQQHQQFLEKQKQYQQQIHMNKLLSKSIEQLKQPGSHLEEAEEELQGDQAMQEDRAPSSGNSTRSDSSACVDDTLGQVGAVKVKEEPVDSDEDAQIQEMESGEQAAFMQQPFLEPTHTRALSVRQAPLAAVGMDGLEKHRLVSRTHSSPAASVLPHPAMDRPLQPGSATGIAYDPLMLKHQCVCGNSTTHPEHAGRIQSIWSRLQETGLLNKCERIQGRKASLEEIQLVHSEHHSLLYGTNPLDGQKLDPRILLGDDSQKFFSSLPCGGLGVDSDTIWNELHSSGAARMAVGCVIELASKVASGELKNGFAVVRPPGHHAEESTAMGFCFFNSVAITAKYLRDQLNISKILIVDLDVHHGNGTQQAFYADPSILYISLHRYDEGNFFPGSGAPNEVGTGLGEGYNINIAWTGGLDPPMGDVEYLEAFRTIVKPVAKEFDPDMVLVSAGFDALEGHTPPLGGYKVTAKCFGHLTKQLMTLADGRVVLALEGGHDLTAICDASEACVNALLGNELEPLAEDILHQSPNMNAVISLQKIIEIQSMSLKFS
# Sequence of HDAC8 (Q9BY41 whole entry): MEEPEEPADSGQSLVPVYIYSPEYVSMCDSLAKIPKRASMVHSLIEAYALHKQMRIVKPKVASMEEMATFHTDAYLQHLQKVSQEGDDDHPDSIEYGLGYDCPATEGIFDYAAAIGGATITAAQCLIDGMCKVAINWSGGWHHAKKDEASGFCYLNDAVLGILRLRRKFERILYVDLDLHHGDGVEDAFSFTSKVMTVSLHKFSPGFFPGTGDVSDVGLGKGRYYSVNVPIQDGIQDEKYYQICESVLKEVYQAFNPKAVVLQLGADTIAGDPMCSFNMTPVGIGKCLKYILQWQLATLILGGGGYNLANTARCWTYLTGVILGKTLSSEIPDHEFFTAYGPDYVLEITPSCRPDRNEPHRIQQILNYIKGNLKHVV
# Sequence of HDAC7 (Q8WUI4 whole entry): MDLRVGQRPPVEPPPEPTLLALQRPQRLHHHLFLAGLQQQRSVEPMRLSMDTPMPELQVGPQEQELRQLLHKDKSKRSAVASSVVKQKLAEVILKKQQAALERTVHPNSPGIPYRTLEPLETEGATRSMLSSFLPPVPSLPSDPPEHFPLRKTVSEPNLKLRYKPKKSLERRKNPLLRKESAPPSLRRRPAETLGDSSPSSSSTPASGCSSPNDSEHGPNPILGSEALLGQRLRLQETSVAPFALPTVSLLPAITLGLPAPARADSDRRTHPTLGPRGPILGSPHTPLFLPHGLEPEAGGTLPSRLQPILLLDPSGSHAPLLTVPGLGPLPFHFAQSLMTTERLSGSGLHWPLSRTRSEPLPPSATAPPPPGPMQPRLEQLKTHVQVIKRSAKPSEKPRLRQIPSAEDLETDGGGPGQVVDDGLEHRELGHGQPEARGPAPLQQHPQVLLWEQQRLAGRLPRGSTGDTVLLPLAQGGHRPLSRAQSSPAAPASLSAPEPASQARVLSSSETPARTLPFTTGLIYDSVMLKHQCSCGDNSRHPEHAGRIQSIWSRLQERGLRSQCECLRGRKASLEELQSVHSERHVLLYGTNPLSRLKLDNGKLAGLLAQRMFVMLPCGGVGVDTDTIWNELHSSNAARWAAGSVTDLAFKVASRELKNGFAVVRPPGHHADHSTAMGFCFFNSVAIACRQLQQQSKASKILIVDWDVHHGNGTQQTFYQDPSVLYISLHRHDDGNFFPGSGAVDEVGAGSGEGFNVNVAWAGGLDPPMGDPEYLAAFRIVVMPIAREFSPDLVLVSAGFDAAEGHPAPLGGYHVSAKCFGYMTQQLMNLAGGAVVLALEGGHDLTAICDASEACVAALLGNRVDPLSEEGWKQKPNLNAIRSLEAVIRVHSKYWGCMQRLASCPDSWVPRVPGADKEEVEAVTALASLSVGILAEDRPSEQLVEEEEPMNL
# Sequence of HDAC3 (O15379 whole entry): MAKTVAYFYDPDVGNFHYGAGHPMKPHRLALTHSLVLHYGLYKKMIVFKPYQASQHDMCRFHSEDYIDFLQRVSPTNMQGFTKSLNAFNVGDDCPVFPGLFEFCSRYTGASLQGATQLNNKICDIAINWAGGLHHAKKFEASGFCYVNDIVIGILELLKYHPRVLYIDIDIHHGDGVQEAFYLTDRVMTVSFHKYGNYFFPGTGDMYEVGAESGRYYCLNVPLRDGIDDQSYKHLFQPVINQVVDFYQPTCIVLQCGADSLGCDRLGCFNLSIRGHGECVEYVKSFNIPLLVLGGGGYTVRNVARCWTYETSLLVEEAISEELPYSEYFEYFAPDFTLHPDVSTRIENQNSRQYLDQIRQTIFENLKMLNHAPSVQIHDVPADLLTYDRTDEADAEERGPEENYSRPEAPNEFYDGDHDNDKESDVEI
# Sequence of HDAC3 (Q9Y618 395-489 partner limits assumed): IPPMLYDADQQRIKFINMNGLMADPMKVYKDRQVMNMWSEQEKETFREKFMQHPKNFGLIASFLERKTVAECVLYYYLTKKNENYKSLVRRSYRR
# Sequence of HDAC2 (Q92769 whole entry): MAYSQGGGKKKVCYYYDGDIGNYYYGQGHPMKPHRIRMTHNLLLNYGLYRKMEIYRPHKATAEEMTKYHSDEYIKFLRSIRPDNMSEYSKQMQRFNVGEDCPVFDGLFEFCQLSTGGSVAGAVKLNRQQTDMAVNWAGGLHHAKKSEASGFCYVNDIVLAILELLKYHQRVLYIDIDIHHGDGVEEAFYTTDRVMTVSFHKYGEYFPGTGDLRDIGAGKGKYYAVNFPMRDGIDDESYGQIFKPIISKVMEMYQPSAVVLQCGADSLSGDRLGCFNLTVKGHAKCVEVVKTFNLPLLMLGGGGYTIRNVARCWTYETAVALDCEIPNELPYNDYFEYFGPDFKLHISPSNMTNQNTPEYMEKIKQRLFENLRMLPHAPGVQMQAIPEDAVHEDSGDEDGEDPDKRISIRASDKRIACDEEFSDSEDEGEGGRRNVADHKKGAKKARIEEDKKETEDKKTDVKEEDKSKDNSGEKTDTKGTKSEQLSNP
smiles,measurement,setting,value
"COc1ccc(CN2[C@@H](C(=O)NCCCCCCC(=O)NO)Cc3c([nH]c4ccccc34)[C@@H]2C2CC2)cc1 [Compound 13d, (1S,3R)-1-Cyclopropyl-N-(7-(hydroxyamino)-7-oxoheptyl)-2-(4-methoxybenzyl)-2,3,4,9-tetrahydro-1H-pyrido[3,4-b]indole-3-carboxamide]",IC50,HDAC2,0.0235 ± 0.00103 µM
same,IC50,HDAC3,0.0321 ± 0.00144 µM
same,IC50,HDAC5,> 50 µM
same,activity for HDAC5 (in words),HDAC5,no activity
same,IC50,HDAC7,> 50 µM
same,activity for HDAC7 (in words),HDAC7,no activity
same,IC50,HDAC8,> 50 µM
same,activity for HDAC8 (in words),HDAC8,no activity
same,IC50,HDAC9,> 50 µM
same,activity for HDAC9 (in words),HDAC9,no activity
same,IC50,HDAC11,1.8 ± 0.106 µM
same,inhibition of HDAC11 (in words),HDAC11,weak inhibition
same,IC50,[1],1.54 ± 0.03 µM
same,IC50,[2],0.48 ± 0.01 µM
same,inhibition at 10 µM,CCRF-CEM,80.3%
same,inhibition at 10 µM,HL60,96.6%
same,inhibition at 10 µM,K-562,92.5%
same,inhibition at 10 µM,A549/ATCC,82.7%
same,inhibition at 10 µM,HOP-62,86%
same,inhibition at 10 µM,NCI-H23,100%
same,inhibition at 10 µM,NCI-H460,93.6%
same,inhibition at 10 µM,NCI-H522,100%
same,inhibition at 10 µM,HCC-2998,100%
same,inhibition at 10 µM,HCT-116,97.9%
same,inhibition at 10 µM,KM12,87.5%
same,inhibition at 10 µM,SW-620,100%
same,inhibition at 10 µM,SF-295,100%
same,inhibition at 10 µM,SF-539,97.1%
same,inhibition at 10 µM,SNB-19,93.3%
same,inhibition at 10 µM,SNB-75,89.8%
same,inhibition at 10 µM,MALME-3M,98.5%
same,inhibition at 10 µM,M14,82.4%
same,inhibition at 10 µM,MDA-MB-435,100%
same,inhibition at 10 µM,SK-MEL-2,100%
same,inhibition at 10 µM,UACC-257,90.1%
same,inhibition at 10 µM,OVCAR-3,96.8%
same,inhibition at 10 µM,OVCAR-5,100%
same,inhibition at 10 µM,OVCAR-8,97.3%
same,inhibition at 10 µM,SK-OV-3,100%
same,inhibition at 10 µM,786-0,82.7%
same,inhibition at 10 µM,CAKI-1,96%
same,inhibition at 10 µM,SN12C,92.2%
same,inhibition at 10 µM,TK-10,100%
same,inhibition at 10 µM,PC-3,80.9%
same,inhibition at 10 µM,HS 578T,100%
same,inhibition at 10 µM,MDA-MB-468,95.9%
same,inhibition at 10 µM,[3],> 80%
